# In patent US8536133B2, “Selective high-affinity polydentate ligands and methods of making such” (Lawrence Livermore National Security, LLC., priority 2004, dated 2013):
# Target: HLA-DR10 (Homo sapiens, UniProt P01911)
# Experiment: Subsequent screenings of ligands for binding to HLA-DR10
# Sequence of HLA-DR10 (P01911 30-266 with the stated changes): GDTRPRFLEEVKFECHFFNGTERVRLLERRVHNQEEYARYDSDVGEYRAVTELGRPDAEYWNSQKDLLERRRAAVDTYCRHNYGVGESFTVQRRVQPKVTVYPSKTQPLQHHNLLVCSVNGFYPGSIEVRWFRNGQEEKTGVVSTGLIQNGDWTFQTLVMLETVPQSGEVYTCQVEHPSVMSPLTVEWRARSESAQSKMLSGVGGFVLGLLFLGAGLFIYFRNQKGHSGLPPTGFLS
# Sequence of HLA-DR10 (P01903 26-254 partner): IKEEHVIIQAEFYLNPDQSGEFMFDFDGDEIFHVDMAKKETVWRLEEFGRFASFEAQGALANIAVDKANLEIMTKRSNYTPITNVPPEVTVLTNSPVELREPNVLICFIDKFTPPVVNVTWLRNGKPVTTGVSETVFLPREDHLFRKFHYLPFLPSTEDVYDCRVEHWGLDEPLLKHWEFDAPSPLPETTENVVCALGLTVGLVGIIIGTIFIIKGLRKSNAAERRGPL
smiles,measurement,value
"Nc1ccc(Oc2ccc(C(=O)c3ccc(C(=O)c4ccc(Oc5ccc(N)cc5)cc4)cc3)cc2)cc1 [1,4-Phenylenebis[[4-(4-aminophenoxy)phenyl]methanone]]",observation with the target protein in screening,precipitated onto the target protein
